The values that follow come from a melting point compilation (Tetko et al.; mined from patent text by program, amines drawn as free bases though some values may be those of a salt).

A word on the melting point: it is the temperature of the solid-liquid transition. As to `CNc1cc(Oc2ccc3c(C(=O)Nc4ccc(F)c(C(F)(F)F)c4)cncc3c2)ncn1`, the melting point was 255 to 257 °C.

As to `CCCCN(Cc1ccc(-c2ccccc2S(=O)(=O)NC(=O)OC(C)(C)C)cc1)C(=O)N1CCCc2ccccc21`, the melting point is over 67 °C.

`CN(C)CCCOc1ccc(-c2nnc(CSCCOc3ccccc3)n2-c2ccccc2)cc1` gave a melting point of 120 to 123 °C. For `CCOc1cc2c(Nc3cc(OC)c(Cl)cc3Cl)c(C#N)cnc2cc1F` the value was 184 to 186 °C. As to `CC(C)(CO)CNC(=O)c1nn(C2CCCCO2)cc1NC(=O)c1ccccn1` (stereo unspecified), the melting point is 189 to 190 °C. `CCCCCN1CCN(O)C1=O`: the melting point lay in the range of 60 to 61 °C.

On to `CN1CCN(C(=O)c2c(N3CCN(C(=O)c4ccco4)CC3)n(-c3ccccc3)c3ccccc23)CC1`, for which the melting point fell in the range of 180 to 181 °C.

`N#Cc1ccc(N(Cc2ccc3c(c2)CNS(=O)(=O)O3)n2ccnc2)cc1` came in with a melting point of 190 °C. For `CS(=O)(=O)c1ccccc1C(=O)N1CCC(N2CCC(Oc3ccc(Cl)c(Cl)c3)CC2)CC1` the value was 141 °C; for `CC1(C)OC(=S)Nc2ccc(-c3sccc3C#N)cc21`, 194 to 195 °C. For `CC(C)(C)C1=CC(=Nc2ccc(C(=O)O)cc2)C=C(C(C)(C)C)C1=O` the value was 305 to 309 °C; for `COc1ccc(CCNS(=O)(=O)Cc2ccc3[nH]cc(CC#N)c3c2)cc1`, 134 to 135 °C. For `O=C(O)c1cccc(-c2cccc(OCCc3cccc(C(F)(F)F)c3)n2)c1` the value was 135 to 136 °C. As to `Cc1ccc(S(=O)(=O)OCC2COc3ccc4nocc4c3O2)cc1` (stereo unspecified), the melting point fell in the range of 109 to 110 °C. The value for `CC(C)N(CCCC(=O)OC1c2ccccc2C(=O)N1c1ccc2ccc(Cl)nc2n1)C(C)C` (stereo unspecified) was 118 °C; that for `CCCCCCCCCCCCS(=O)(=O)N[C@H]1CCCNC(=O)C1` was 100 to 101 °C. The value for `O=C(c1c(Cl)cccc1Cl)P(=O)(c1ccccc1)c1ccccc1` was 156 to 158 °C. For `CCc1ccc2c(c1)C=Cc1cc(C)ccc1C2c1cn(-c2ccnc(N3CC(C(=O)Nc4nc(CC(=O)O)cs4)C3)n2)c(=O)[nH]c1=O` (stereo unspecified), the melting point amounted to 235 °C. The value for `CS(=O)(=O)N[C@@H]1CCCC[C@H]1Nc1nc(Nc2ccc3c(c2)CCC(F)(F)CC3)ncc1Cl` was 118 to 128 °C; that for `O=C(OCCl)n1c(-c2cscn2)nc2ccccc21` was 143 to 144 °C. For `CN(C)CCCN1c2ccccc2N(C)C(=O)c2cccnc21` the value was 98.5 to 100 °C; for `CN(CCCCCCCCC(=O)O)c1cnc(-c2ccccc2)c(-c2ccccc2)n1`, 103 to 105 °C; for `CC(C)(C)C(=O)c1c[nH]c2ncc(-c3ccoc3)nc12`, 256 to 258 °C. For `O=c1c2ccccc2nc(-c2sc(Nc3ccc(Cl)cc3)nc2-c2ccccc2)n1-c1ccc(Cl)cc1` the value was 271 to 272 °C; for `COc1ccc2c(c1)C(C(=O)N(Cc1ccc(C#N)cc1)c1ccc(C(C)C)cc1)CCC2` (stereo unspecified), 137 to 138 °C. Molecule `O=C(NCCO)c1cccc(-c2ccc3ccn(Cc4ccc(Cl)cc4Cl)c3n2)c1` displayed a melting point of 161 to 162 °C. The value for `CCc1c(C)c2ccc(O)cc2oc1=O` was 201 to 203 °C; that for `CN(C)CCOc1ccc2c(c1)OCC21C(=O)Nc2ccccc21` (stereo unspecified) was 95 to 97 °C; that for `Cn1nc(-c2ccccc2)c(O)c1-c1ccccc1` was 157 to 160 °C. Turning to `CN(C/C=C\c1ccc(Cl)cc1)Cc1cccc2ccccc12`, the melting point was 41 to 42 °C.

On to `O=C(c1ccccc1)N1CC=C(c2c[nH]c3ccc([N+](=O)[O-])cc23)CC1`, for which the melting point was 280 to 282 °C. For `N#CCN1CCC(OC(c2ccccc2)c2ccccc2)CC1` the value was 78 to 80 °C; for `CC(=O)NCCNc1ccc(NCCNC(C)=O)c2c1C(=O)c1c(O)ccc(O)c1C2=O`, 273 to 274 °C; for `CCn1cc(C(=O)O)c(=O)c2cc(F)c(N3CCCC(O)C3)c(F)c21` (stereo unspecified), 232 to 234 °C. In the case of `Clc1ccc(Nc2nnc(Cc3ccncc3)c3c2CCCC3)cc1`, the melting point lay in the range of 258 to 261 °C. For `Cc1sc(C(=O)O)cc1NC(=O)Cc1ccccc1` the value was 249 to 250 °C; for `CCCOC(Cc1ccc(OCCc2nc(C3CC3)oc2C)c2ccsc12)C(=O)O` (stereo unspecified), 61 to 63 °C; for `O=C(O)c1ccc2nc(-c3ccccc3)c(-c3ccccc3)nc2c1`, 290 to 292 °C. The value for `COc1ccc(C(=O)CC(SC(C)=O)C(=O)O)cc1` (stereo unspecified) was 122 to 124 °C; that for `O=C(CBr)CCc1ccc(I)cc1` was 76 to 77 °C; that for `N#CC1C(=O)NC(=O)C(C#N)C12CCN(Cc1ccccc1)CC2` (stereo unspecified) was 179 to 181 °C. The value for `CN(C)C=NS(=O)(=O)CCC(C)(C)CC#N` was 53 to 54 °C; that for `CCOC(=O)c1cc2c(F)cccc2nc1Cl` was 97 °C; that for `CC(Oc1ccc(-c2ccc(F)c(C#N)c2)cc1)C(O)CCc1cccnc1` (stereo unspecified) was 108 to 109 °C.

`COc1ccccc1N1CCN(CCCCOc2ccc(-c3cn4ccccc4n3)cc2)CC1`: the melting point was 144 to 145 °C. The value for `CC(=O)C1C(=O)CC(CCS(=O)c2ccc(C(F)(F)F)cc2)CC1=O` (stereo unspecified) was 99 to 100 °C; that for `C[C@@H](CO)[C@](O)(Cn1cncn1)c1ccc(F)cc1F` was 93 to 95 °C. For `O=C(Nc1ccc2cc(CN3CCCC3)ccc2c1)N1CCC(c2ccc(F)cc2)CC1`, the melting point is 209 to 211 °C. The value for `O=C(Nc1ccc(F)cc1)OCC1CSC2=C(O1)c1ccccc1C(=O)C2=O` (stereo unspecified) was 235 to 237 °C; that for `Cc1ccc(-c2nc3c(C)cccc3c(=O)[nH]2)c(Cl)c1` was 234 °C. The molecule `O=C1c2cccc(F)c2-n2c1nc1ccccc1c2=O` had a melting point of 264 to 267 °C. The value for `CCN1CCCC1CNC(=O)c1nc(Cl)c(N)nc1OC` (stereo unspecified) was 155 °C; that for `Clc1nc(SCc2ccccc2)ncc1Br` was 56 to 57 °C; that for `O=C(O)C(CCCCc1ccccc1)Oc1cccc2ccccc12` (stereo unspecified) was 91 to 94 °C. The value for `O=C(CCNC(=O)[C@H](Cc1ccc(-c2ccccc2)cc1)NCP(=O)(Oc1ccccc1)Oc1ccccc1)Oc1ccc2c(c1)CCC2` was 89 to 91 °C; that for `O=C1CCC(c2ccc(Cl)c([N+](=O)[O-])c2)=NN1` was 190 to 193 °C; that for `COc1ccc(C(=O)Nc2ccncc2)c2c3ccccc3n(Cc3ccc(F)cc3)c12` was 230 to 232 °C. The value for `CCOC(=O)c1ncc2[nH]c3ccc(-c4ccccc4)cc3c2c1C` was 241 to 242 °C; that for `Cn1c(=O)c2c(nc3n2CC(O)CN3)n(C)c1=O` (stereo unspecified) was 360 °C; that for `NC(=O)c1cccc(OCCCCCBr)c1` was 98 to 99 °C. Consider `NS(=O)(=O)c1cc(C(=O)Nn2cnc3cc(C(F)(F)F)ccc32)ccc1Cl`, for which the melting point was 164 °C. On to `Cc1ccccc1C(NCC(=O)Nc1c(C(C)C)cccc1C(C)C)c1ccccc1` (stereo unspecified), for which the melting point lay in the range of 163 to 164 °C. For `COc1ccc2c3ccnc(C)c3n(Cc3ccccc3)c2c1` the value was 131 to 133 °C; for `COc1cc2c(cc1OCc1ccccc1)C1Cc3c(Cl)cc(OC)c(OC(=O)c4ccccc4)c3CN1CC2` (stereo unspecified), 170 to 172 °C; for `C#CC1(O)CCC2C3CCC4=CC(=O)CCC4C3C(=CF)CC21C` (stereo unspecified), 188 to 190 °C. For `CCOC(=O)c1cn(C)nc1OCc1ccc(OCc2nc(-c3ccccc3)oc2C)c(OC)c1` the value was 134 to 135 °C; for `CCCCCCCNC(=O)Oc1ccc2ncccc2c1`, 78 °C. The value for `Cc1cc2cccc(OS(=O)(=O)C(F)(F)F)c2nc1-c1ccccc1` was 85 °C; that for `CCCCN(C)C(=NC#N)NCc1cccnc1` was 65 to 69 °C; that for `N#CNC(=S)Nc1ccc(Cl)cc1` was over 250 °C. Turning to `Cc1cccc(CON2C(C)(C)CC(OC(=O)c3ccccc3)CC2(C)C)c1`, the melting point was 64 to 65 °C. The value for `CC(C)CC1N=C(c2ccccc2)OC1=O` (stereo unspecified) was 53 to 55 °C; that for `CCCCCCN(C[C@H]1CC[C@H](CN(CCCCCC)C(=O)Nc2ccc(N(C)C)cc2)CC1)C(=O)Nc1ccc(N(C)C)cc1` was 160 to 163 °C; that for `COCOc1c(C(C)(C)C)cc(C=[N+]([O-])C(C)(C)C)cc1C(C)(C)C` was 202 to 206 °C. Consider `CCOC(=O)C(C)(C)Oc1ccc(OCCc2nc(-c3ccc(C(N)=O)cc3)oc2C)cc1`, for which the melting point came out at 112 °C. For `CCN(c1ccc(C)cc1)c1cc(NC)nc(C)n1` the value was 140 to 143 °C. For `COC(=O)c1cccc2c(C#N)c[nH]c12` the value was 212 to 214 °C; for `O=C(O)C1(S(=O)(=O)c2ccc(Oc3ccc(Cl)cc3)cc2)CCN(Cc2ccccc2)CC1`, 201 °C; for `Cc1cc([N+](=O)[O-])ccc1Oc1ccc(C(C)(C)c2cccc(C(C)(C)c3ccc(Oc4ccc([N+](=O)[O-])cc4C)cc3)c2)cc1`, 116 to 118 °C.

As for `CCc1cn(C2CC(O)C(CNC(=O)Cc3c(Cl)cccc3Cl)O2)c(=O)[nH]c1=O` (stereo unspecified), the melting point was 296 to 297 °C.

`Cc1ccc(C(=O)Nc2c(NC(=O)CN3CCCC3)ccc3c2C(=O)c2ccccc2C3=O)cc1` showed a melting point of 193 to 194 °C. The value for `O=c1[nH]c2ccccc2n1-c1ccc(Cl)cc1Cl` was 213 to 216 °C; that for `OCc1ccc(-c2ccc(O)cc2)c(-c2ccc(O)cc2)c1` was 214 °C; that for `CN(C)CCCC(c1ccncc1)S(=O)(=O)c1ccc(Cl)cc1` (stereo unspecified) was 78 to 80 °C.

`O=C(CCn1ccnc1)N1c2ccccc2S(=O)c2ccc(Cl)cc21` (stereo unspecified) displayed a melting point of 148 to 149 °C.

`CN1Cc2cccc(S(N)(=O)=O)c2S1(=O)=O` gave a melting point of 195 to 197 °C.
